This passage reports Kd results from ChEMBL document CHEMBL1134404, “Bisubstrate analogue inhibitors of 6-hydroxymethyl-7,8-dihydropterin pyrophosphokinase: synthesis and biochemical and crystallographic studies” (J Med Chem, 2001).

The assay in a line: Compound was tested for the binding affinity towards HPPK Receptor without Mg 2. Details: species or system Escherichia coli.

The term Kd denotes the equilibrium constant for the complex coming apart. Low values mean a tighter complex, high ones a looser complex. `Nc1nc2ncc(COP(=O)(O)OP(=O)(O)OP(=O)(O)OP(=O)(O)OC[C@H]3O[C@@H](n4cnc5c(N)ncnc54)[C@H](O)[C@@H]3O)nc2c(=O)[nH]1` gave a Kd of 1930 nM.
